Tests used:
cytokine production = experiment: Experiment 6: inhibition of cytokine production by purified periandrins, same manner as Experiment 1; assay type: in vivo, rats; details: 0.1-3 mg/Kg of body weight per injection
Method: (§1) In this case, however, the number of groups of rats were made six, one of which includes the rats to which PD-I was injected, another of which includes the rats to which PD-II was injected, another of which includes the rats to which PD-III was injected, another of which includes the rats to which PD-IV was injected, another of which includes the rats to which prednisolone acetate was injected, and another of which includes the rats to which a solvent without any drugs was injected.
(§2) The dose per one injection of PD-I, PD-II, PD-III and PD-IV was 0.1-3 mg/Kg of body weight.
(§3) The dose per one injection of prednisolone acetate was 5 mg/Kg of body weight.

[1] = system: collagen induction arthritis model; experiment: Experiment 2: collagen induction arthritis model, arthritis index; assay type: in vivo, mice; details: for symptoms of arthritis: purified periandrins in the model of Experiment 2; for arthritis index (ranking 0-5), group average: 5 mg/head i.p. every other day
Method: Clinical symptoms of arthritis of mice in the respective groups were evaluated by one and the same observer using 6 rankings from zero to five (the larger the value is, the worse the symptom is), and the averages per the respective groups were calculated. These evaluations were performed in 0, 3rd, 4th, 5th, 6th, 7th and 8th week after the first immunity The results were shown in FIG. 3 and Table 3.

[2] = biological target: T1, 11 β-hydroxysteroid dehydrogenase (Rattus norvegicus, UniProt P16232); experiment: Experiment 5: inhibition of 11 β-hydroxysteroid dehydrogenase activity (rat liver microsome, cortisone by HPLC); assay type: biochemical; details: for inhibitory activity relative to glycirrhizin: from IC50 values; for IC50: rat liver microsome, substrate hydrocortisone, NADP 1 mM, pH 8.0, read-out: IC50 (concentration in which 50 percent of enzyme activity is inhibited)
T1 construct: Fresh rat liver was ice-cooled and homogenized in 0.25 M sucrose solution; from tissue; host or cells: rat liver microsome fraction
Method: In order to evaluate the effect of inhibiting 11 β-hydeoxysteroid dehydrogenase activity by the purified periandrins (PD-I, PD-II, PD-III, PD-IV) obtained in Example 4 or 5, IC 50 values (concentration in which the 50 percent of activity of the above enzyme is inhibited) of the purified periandrins were measured by the following steps I-VI.
I. An enzymatic solution containing rat liver microsome as a preparation of 11 β-hydroxysteroid dehydrogenase was prepared as below.
Fresh rat liver was ice-cooled and homogenized in 0.25 M sucrose solution. Then, at the temperature of 4° C., it was centrifuged for 20 minutes at 10,000×g.
After separating cell organelles of the nucleus, mitochondria and lysosome as deposits, the supernatant layer was further centrifuged at 105,000×g for 60 minutes at the temperature of 4° C. to obtain a microsome fraction as a precipitate.
The obtained microsome fraction was suspended by 0.25 M sucrose solution to produce an enzymatic solution, and the obtained solution was stored at the temperature of −20 degrees till the time of measurement of enzyme activity.
1 mM of NADP (product of Oriental Yeast Co., Ltd,) as a coenzyme and an amount of PD-I having a predetermined concentration (ranging from 2 to 1480 μM) as an inhibitor were added to 0.8 ml of Tris-HCI buffer solution having the concentration of 100 mM (PH8.0).
0.2 ml of the enzymatic solution prepared in step I was added to the obtained solution, and after three minutes of preincubation at 37° C., 0.02 ml of 5 mM hydrocortisone solution which was dissolved in methanol was added to start a reaction between 11 β-hydroxysteroid dehydrogenase and PD-I. The reaction was continued for 30 minutes at the temperature of 30° C., and then it was stopped by adding 0.5 ml of ethyl acetate.
This solution was centrifuged and an ethyl acetate layer was separated into an Eppendorf tube. In the mean time, cortisone and substrate hydrocortisone generated by the reaction between 11 β-hydroxysteroid dehydrogenase and substrate hydrocortisone are transferred to the ethyl acetate layer.
Furthermore, the water phase after the centrifuge was again centrifuged in the same manner as above by adding 0.5 ml of ethyl acetate to separate an ethyl acetate layer. This process was repeated two more times.
The ethyl acetate layers obtained by three time extraction were put together into an Eppendorf tube and dried using a centrifugal evaporator.
To prepare a measurement sample, 0.2 ml of methanol was added into the Eppendorf tube in which the ethyl acetate layers were dried in step II, and then the tube was left for a night so that cortisone was completely dissolved. Cortisone was determined using HPLC.
Particularly, quantity of cortisone contained in the sample was calculated from a ratio of a peak area corresponding to cortisone when the measurement sample was introduced to HPLC to a peak area when 5 μl of standard solution (0.1 mg/ml of cortisone-methanol solution) was introduced.
The measurement conditions of HPLC were as follows.
IV. Relative activity (ratio of activity remained after reaction with an inhibitor to the initial activity) of 11 β-hydroxysteroid dehydrogenase was calculated from the quantity of cortisone in accordance with the following equation. Relative activity=((CI−CBL)/(CT−CBL))×100(%) • where • CT: cortisone quantity generated when no inhibitor is added; • CI: cortisone quantity generated when an inhibitor exists; and • CBL: cortisone quantity when enzyme is not added.
V. Measurement of relative activity when PD-II, PD-III, PD-IV, and glycirrhizin were added as an inhibitor instead of PD-I was performed in the same manner as in steps I-IV.
The concentration of the inhibitor PD-I, PD-II, PD-III or PD-IV in the measurement of relative activity is a predetermined value ranging from 2 to 1480 μM. The concentration of glycirrhizin is a predetermined value ranging from 0.2 to 445 μM. […]

liver function = experiment: Experiment 6: protecting and promoting liver function by purified periandrins, same manner as Experiment 1; assay type: in vivo, rats; details: 0.1-3 mg/Kg of body weight per injection
Method: as §1, §2, §3

[3] = system: autoimmune encephalomyelitis model; experiment: Experiment 3: autoimmune encephalomyelitis model, clinical score; assay type: in vivo, rats; details: for symptoms of encephalomyelitis: purified periandrins in the model of Experiment 3
[4] = system: glutamic-oxaloacetic transaminase activity (GOT); experiment: Experiment 1: blood GOT activity in mice with Propionivacterium acnes / lipopolysaccharide induced hepatopathy; assay type: in vivo; details: groups B (Brazilian licorice extract, 25 mg), D (Chinese licorice extract, 25 mg), F (prednisolone acetate 5 mg); i.p. four times
Method: (§4) The following experiment was performed to examine the effects of inhibiting cytokine production and lowering GOT activity of the extracts obtained in Example 1 and Comparative Example 1. Male mice of ddy system (Japan SLC, Inc.), each of which weighs 18-20 g, are prepared for the experiment. […] 5 mg of Propionivacterium acnes suspension was injected into the vein of the aforementioned mice respectively, to cause hepatopathy. […] 10 μg of lipopolysaccharide was injected into the vein of the mice in all groups respectively, thirty minutes after the fourth injection in step II (as to the mice in group A, the injection was performed at the same timing as the mice in the other groups). Then, two hours later, blood was taken from all the mice to obtain serum. There was no visible change in weight and food and water consumption of the mice. From the serum obtained in step III, glutamic-oxaloacetic transaminase activity (GOT) was measured. For the measurement, a commercially available measurement kit which adopts Enzyme Linked immuno-Sorbent Assay using enzyme labeling antibody was used. […] Units.

[5] = Experiment 4: weight changes of rats in autoimmune encephalomyelitis model; assay type: in vivo; details: 5 mg/Kg of body weight per injection
Method: The immunosuppressive effect of the BL. 1, BL. 2 and […].
The manner of experiment was basically the same as the aforementioned Experiment 3.
However, the number of groups of rats were reduced to five, one of which included the rats to which the BL. 1 was injected, another of which included the rats to which the BL. 2 was injected, another of which included the rats to which the BL. 3 was injected, another of which included the rats to which prednisolone acetate was injected, and another of which included the rats without injection.
The dose per one injection of BL. 1, BL. 2 and BL. 3 was 6 mg/head and in the form of physiological saline.
The dose per one injection of prednisolone acetate was 5 mg/Kg of body weight and in the form of physiological saline.

[6] = system: collagen induction arthritis model; experiment: Experiment 2: collagen induction arthritis model, foot pad swelling (foot pad volume); assay type: in vivo, mice; details: 5 mg/head i.p. every other day
Method: These evaluations were performed in 0, 3rd, 4th, 5th, 6th, 7th and 8th weeks after the first immunity. The values in FIG. 4 are relative values based on the initial hind foot pad volumes.

[7] = extracts of Example 2 / Comparative Example 2 6 and 12.5 mg/head, prednisolone acetate 5 mg/Kg, i.p. every other day, eight weeks
Method: DBJ/1J mice were used in the experiment. The mice are divided into six groups, namely, G, H, I, J, K and L, each consisting of six mice.
50 μl (200 μg/head) of the emulsion was then injected to the back neck skin of each of the mice under ether (first immunity).
Three weeks after the first immunity, 50 μl (200 μg/head) of the emulsion was injected to the tail head skin of each of the mice (second immunity).
Prednisolone acetate (produced by Shionogi & Co., Ltd.) which is a control drug was suspended by physiological saline so that the dosage is 5 mg/Kg of body weight, and the obtained suspended solution was injected into the abdominal cavity of each mouse in group L by 1 ml every other day after the first immunity.
The above injections were performed all through the test period (for eight weeks after the first immunity).
The weight of the mice in the respective groups were measured every day after the first immunity and the average weight per each of the groups was calculated.

interleukin-6 (IL-6) = experiment: Experiment 1: blood cytokine (IL-6) in mice with Propionivacterium acnes / lipopolysaccharide induced hepatopathy; assay type: in vivo; details: groups B (Brazilian licorice extract of Example 1, 25 mg), D (Chinese licorice extract of Comparative Example 1, 25 mg), F (prednisolone acetate 5 mg); i.p. four times; serum 2 h after LPS
Method: as §4, with “measurement of interleukin-6 (IL-6), which is a kind of cytokine,” for “glutamic-oxaloacetic transaminase activity (GOT)”, “performed.” for “measured.”, “Fluorescence” for “Enzyme”, “fluorescence” for “enzyme”, “The measured values in Table 1 show IL-6 levels (unit: picogram) per 1 ml serum.” for “Units.”

T1 sequence (P16232 whole entry): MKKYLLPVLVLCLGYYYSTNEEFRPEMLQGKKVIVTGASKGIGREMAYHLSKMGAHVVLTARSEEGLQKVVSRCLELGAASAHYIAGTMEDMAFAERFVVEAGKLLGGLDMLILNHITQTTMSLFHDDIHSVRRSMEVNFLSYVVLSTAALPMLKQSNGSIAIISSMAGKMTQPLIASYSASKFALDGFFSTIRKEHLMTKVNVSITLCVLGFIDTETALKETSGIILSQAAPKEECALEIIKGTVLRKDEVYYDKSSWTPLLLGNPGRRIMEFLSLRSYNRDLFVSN

Compound: CC1(C)[C@@H](O[C@@H]2O[C@H](C(=O)O)[C@@H](O)[C@H](O)[C@H]2O[C@@H]2O[C@H](C(=O)O)[C@@H](O)[C@H](O)[C@H]2O)CC[C@]2(C=O)[C@H]3CC[C@@H]4C5=C[C@@](C)(C(=O)O)CC[C@]5(C)CC[C@@]4(C)[C@]3(C)CC[C@@H]12 [PD-I, periandrin I]
- effect of inhibiting cytokine production (cytokine production): show the effects of inhibiting cytokine production
- symptoms of arthritis [1]: eased the symptoms of arthritis
- inhibitory activity relative to glycirrhizin [2]: about one fifth to one twentieth of glycirrhizin
- IC50 [2]: 214 µM
- effect of protecting and promoting liver function (liver function): protecting and promoting liver function
- symptoms of encephalomyelitis [3]: eased the symptoms of arthritis and encephalomyelitis

Compound: CC1(C(=O)O)C=C2C3CCC4C5(CO)CCC(OC6OC(C(=O)O)C(O)C(O)C6OC6OC(C(=O)O)C(O)C(O)C6O)C(C)(C)C5CCC4(C)C3(C)CCC2(C)CC1 (centres unmarked) [PD-III, periandrin III]
- effect of inhibiting cytokine production (cytokine production): show the effects of inhibiting cytokine production
- symptoms of arthritis [1]: eased the symptoms of arthritis
- inhibitory activity relative to glycirrhizin [2]: about one fifth to one twentieth of glycirrhizin
- IC50 [2]: 581 µM
- effect of protecting and promoting liver function (liver function): protecting and promoting liver function
- symptoms of encephalomyelitis [3]: eased the symptoms of arthritis and encephalomyelitis

Compound: CC1(C)[C@@H](O[C@H]2O[C@H](C(=O)O)[C@@H](O)[C@H](O)[C@H]2O[C@@H]2O[C@H](C(=O)O)[C@@H](O)[C@H](O)[C@H]2O)CC[C@]2(C)[C@H]3C(=O)C=C4[C@@H]5C[C@@](C)(C(=O)O)CC[C@]5(C)CC[C@@]4(C)[C@]3(C)CC[C@@H]12 [glycirrhizin, reference compound]
- IC50 [2]: 26.2 µM

Compound: CC(=O)OCC(=O)[C@@]1(O)CC[C@H]2[C@@H]3CCC4=CC(=O)C=C[C@]4(C)[C@H]3[C@@H](O)C[C@@]21C [prednisolone acetate]
- arthritis index (ranking 0-5), group average ([1]; 3rd week): 0
- arthritis index (ranking 0-5), group average ([1]; 4th week): 0
- arthritis index (ranking 0-5), group average ([1]; 5th week): 0
- arthritis index (ranking 0-5), group average ([1]; 6th week): 0
- arthritis index (ranking 0-5), group average ([1]; 7th week): 0.125
- arthritis index (ranking 0-5), group average ([1]; 8th week): 0.125
- arthritis index (ranking 0-5), group average ([1]; Primary immunity): 0
- blood GOT activity level, average of eight mice [4]: 350.705 Kermen Units
- weight increase compared to the other groups (FIG. 6, words) [5]: had the least increase
- hind foot pad volume, group average, relative to initial volume ([6]; 3rd week): 99.2
- hind foot pad volume, group average, relative to initial volume ([6]; 4th week): 95.2
- hind foot pad volume, group average, relative to initial volume ([6]; 5th week): 101.1
- hind foot pad volume, group average, relative to initial volume ([6]; 6th week): 102.4
- hind foot pad volume, group average, relative to initial volume ([6]; 7th week): 95.5
- hind foot pad volume, group average, relative to initial volume ([6]; 8th week): 97.9
- hind foot pad volume, group average, relative to initial volume ([6]; Primary immunity): 100
- time at which a few rats developed encephalomyelitis ([3]; group R, 5 mg/Kg of body weight i.p. once a day for 12 days): 8-11 days after the injection of emulsion
- average weight of mice (FIG. 2) [7]: reduced significantly
- blood IL-6 level, average of eight mice (interleukin-6 (IL-6)): 26473 picogram per 1 ml serum

Compound: periandrin II [PD-II]
- effect of inhibiting cytokine production (cytokine production): show the effects of inhibiting cytokine production
- symptoms of arthritis [1]: eased the symptoms of arthritis
- inhibitory activity relative to glycirrhizin [2]: about one fifth to one twentieth of glycirrhizin
- IC50 [2]: 150 µM
- effect of protecting and promoting liver function (liver function): protecting and promoting liver function
- symptoms of encephalomyelitis [3]: eased the symptoms of arthritis and encephalomyelitis

Compound: periandrin IV [PD-IV]
- effect of inhibiting cytokine production (cytokine production): show the effects of inhibiting cytokine production
- symptoms of arthritis [1]: eased the symptoms of arthritis
- inhibitory activity relative to glycirrhizin [2]: about one fifth to one twentieth of glycirrhizin
- IC50 [2]: 240 µM
- effect of protecting and promoting liver function (liver function): protecting and promoting liver function
- symptoms of encephalomyelitis [3]: eased the symptoms of arthritis and encephalomyelitis

From patent publication US6992068B2 (Gifu Shellac Mfg., Co., Ltd., priority 2000, dated 2006)
